Experimental data: US12428666B2, “Compositions and methods related to kethoxal derivatives” (The University of Chicago, priority 2018, dated 2025)
“Also recorded” adds a separate entry of the source.

What was measured:
Pol II = experiment: ssDNA-seq after Pol II inhibitor treatment; format: cell-based, human; settings: for ssDNA peak number: 2 h, control more than 43,000; for distribution of ssDNA-seq peaks on gene coding regions: after inhibitor treatment vs control
Description: N3-kethoxal enables genome-wide single-stranded DNA mapping (ssDNA-seq). Taking advantage of the sensitivity and the selectivity of N3-kethoxal towards single-stranded nucleic acids, the inventors first applied N3-kethoxal to map single-stranded regions of the genome, which has not been previously achieved. Human embryonic kidney (HEK) cells were cultured in N3-kethoxal-containing medium for 10 min to facilitate labelling before harvested. Genomic DNA was then purified and subjected to biotinylation reaction through “click” chemistry. Biotinylated DNA was purified and fragmented, followed by immunoprecipitation with streptavidin-coated beads. Enriched DNA and their corresponding inputs was used to make libraries, which were then sequenced and aligned.
ssDNA is performed by: (1) Prepare labeling medium by adding 5 μL pure N3-kethoxal to 5 mL pre-warmed cell culture medium for each 10 cm dish. (2) Incubate cells in the labeling medium for 10 min at 37° C., 5% CO2. (3) For transcription inhibition experiments, cells were treated for 2 h under 100 μM DRB or 1 μM triptolide before incubated in N3-kethoxal-containing medium. (4) Harvest cells after the 10 min incubation, isolate total DNA from cells by PureLink genomic DNA mini kit according to the manufacturer's protocol. (5) Suspend 5 μg total DNA in 85 μL H2O, then add 10 μL 10×PBS and 5 μL 20 mM DBCO-PEG4-biotin (DMSO solution), incubate the mixture at 37° C. for 2 h. (6) Add 5 μL RNase A to the reaction mixture, incubate the mixture at 37° C. for another 15 min. (7) Recover DNA from the reaction mixture by DNA Clean & Concentrator kit according to the manufacturer's protocol.

[1] = test system: mRNA secondary structures in live cells; experiment: KARRI after translation inhibitor treatment; format: cell-based; settings: 100 μg/mL cycloheximide or 3 μg/mL harringtonine, 37° C., 10 min
Description: KARRI is performed by: (1) Suspend live cells in 1% formaldehyde solution at 1×10^6/mL and incubate at room temperature for 10 min with gentle rotate. Then quench this reaction by adding glycine to a final concentration of 125 mM and rotate the mixture at room temperature for 5 min. For translation inhibitor treatment, cells were treated with 100 μg/mL cycloheximide or 3 μg/mL harringtonine at 37° C. for 10 min. (2) Collect and take 2×10^6 cells. Dilute N3-Kethoxal by 1:5 using DMSO. Make a labeling buffer by adding 10 μL N3-Kethoxal into 290 μL lysis buffer (10 mM Tris-HCl pH 8.0, 10 mM NaCl, 0.2 IGEPAL CA630) with 3 μL 100× proteinase inhibitor cocktail. (3) Suspend cells in labeling buffer and rotate at room temperature for 30 min, then centrifuge at 2500 g for 5 min at 4° C. to collect cells. (4) Wash cell pellets with 500 μL ice-cold lysis buffer for 3 times. (5) Suspend the pellet in 500 μL MeOH containing 10 μM dendrimers, rotate for 1 h at 37° C. Then centrifuge at 2500 g for 5 min at 4° C. to collect cells. (6) Wash cell pellet twice with 500 μL ice-cold lysis buffer. (7) Resuspend cells in 385 μL lysis buffer, add 50 μL 10% SDS, 30 μL proteinase K, 10 μL RNase inhibitor, 25 μL 500 mM K3BO3, shake at 65° C. for 2 h. (8) Add 500 μL phenol-chloroform to extract RNA and purify RNA by EtOH precipitation. […]

guanine = experiment: Reaction of N3-kethoxal with RNA nucleic bases and RNA oligos (HPLC, MALDI-TOF); format: biochemical; settings: 12 mer RNA oligo with 4 guanines
Description: The reaction of N3-kethoxal and RNA was generally performed with the following protocol: 100 pmol RNA oligo and 1 μmol N3-kethoxal was incubated in total 10 μL solution in PBS buffer at 37° C. for 10 mins. […] The purified labelled RNA can be used for further studies such as mass spectrometry, gel electrophoresis and copper-free click reaction with biotin-DBCO.
MALDI-TOF-MS analysis of N3-kethoxal labelled RNA oligo. […] Meanwhile the buffer exchange occurred from PBS buffer to tris buffer that can be directly used in MALDI-TOF-MS experiment without extra desalt step. One microliter of product solution was mixed with one microliter matrix which include 8:1 volume ratio of 2′4′6′-trihydroxyacetophenone (THAP, 10 mg/mL in 50% CH3CN/H2O):ammonium citrate (50 mg/mL in H2O). Then the mixture was spotted on the MALDI sample plate, dried and analyzed by Bruker Ultraflextreme MALDI-TOF-TOF Mass Spectrometers.
The product of N3-kethoxal with for RNA nucleic bases was analyzed using LC-6AD (Shimadzu, Japan) HPLC instrument, which equipped with an Inertsil ODS-SP column ([…], 250×4.6 mm) (GL Science Inc. Japan). The phase A (100 mM TEAA buffer, pH=7.0) and phase B (CH3CN) were used as eluents with a flow rate of 1 mL/min at 35° C. (B conc.: 5-5-30%/0-5-30 min).

| SMILES | distribution of ssDNA-seq peaks on gene coding regions (Pol II) | effect on in vivo RNA secondary structures (KARRI) [1] | also measured |
| --- | --- | --- | --- |
| CC(C)[C@]12O[C@H]1[C@@H]1O[C@]13[C@]1(O[C@H]1C[C@H]1C4=C(CC[C@@]13C)C(=O)OC4)[C@@H]2O [Triptolide, triptolide] | most peaks on gene coding regions disappeared | – | ssDNA peak number (Pol II; 1 μM triptolide): ~3,700 |
| C[C@@H]1C[C@@H]([C@H](O)CC2CC(=O)NC(=O)C2)C(=O)[C@@H](C)C1 [cycloheximide] | – | undermined in vivo-specific structures and increased in vitro features | – |
| Cc1ncccc1C(=O)n1ccnc1 [NAI, reference compound] | – | – | labelling of RNA oligo (MALDI-TOF molecular weight of product) (guanine): some oligoes were only reacted by one NAI and some were labelled by two or three |
| OC[C@H]1O[C@@H](n2cnc3cc(Cl)c(Cl)cc32)[C@H](O)[C@@H]1O [DRB, 5,6-dichloro-1-β-D-ribofuranosylbenzimidazole] | Stronger peaks were observed at TSS while peaks on gene body and TES were eliminated | – | ssDNA peak number (Pol II; 100 μM DRB): around 16,000 |
| COC(=O)C[C@](O)(CCC(C)(C)O)C(=O)O[C@@H]1C(OC)=C[C@]23CCCN2CCc2cc4c(cc2[C@H]13)OCO4 [harringtonine] | – | undermined in vivo-specific structures and increased in vitro features; also recorded: in vivo-specific structures were undermined while some in vitro-specific features showed up | – |
